Assay results published in patent US20090312282A1, “Novel Low Molecular Weight Hyaluronic Acid and/or Salt Thereof, and Cosmetic Preparation, Pharmaceutical Composition, and Food Composition Each Using Same” (Q. P. Corporation, priority 2006, published 2009).

Test system: hairless mice (Hos: HR-1)
Details: mouse, in vivo
Source text: In this test example, the low-molecular-weight hyaluronic acid according to the invention was percutaneously administered to a mouse to evaluate the percutaneous absorbability of the low-molecular-weight hyaluronic acid. Six-week-old (when the test was started) male hairless mice (Hos: HR-1) (purchased from Japan SLC Inc.) […] Specifically, the hyaluronic acid was labeled with a fluorescent substance by allowing a carboxylic acid group of the hyaluronic acid to react with DMEQ-hydrazide. […] The HPLC analysis conditions were as follows. • Analyzer: Waters 2690 470 • Column: Shodex suger KS807 (gel filtration column) • Column temperature: 40° C. • Flow rate: 0.5 mL/min • Injection amount: 20 microliters • Mobile phase: 0.003 mol/L phosphoric acid buffer containing 0.15 mol/L sodium chloride • Fluorescence analysis conditions: excitation wavelength: 365 nm, fluorescence wavelength: 447 nm […] It is considered that the peak was also detected in the test group 3 due to a fluorescent substance (e.g., vitamin, aromatic amino acid, and cholesterol) originally contained in the living body. […] The STD solution was analyzed by HPLC to determine the peak area.

fluorescence intensity (peak) in the skin compared with control group (test group 3) | Substance | amount of percutaneous absorption of hyaluronic acid (increase in hyaluronic acid per g of skin)
no significant difference | hyaluronic acid [Sample 2] | –
– | low-molecular-weight hyaluronic acid [Example 2] | increased with time when the sample attachment time was 1 to 3 hours, and almost reached equilibrium when the sample attachment time was 3 to 5 hours
